Laboratory results: ChEMBL document CHEMBL5108027, “An unanticipated discovery of novel naphthalimidopropanediols as potential broad-spectrum antibacterial members” (Eur J Med Chem, 2022)
Converted amounts (≈) assume the structure as drawn. The source made the active and inactive calls. The rule behind the calls is not given here.

Legend:
[1] = test system: Staphylococcus aureus; test: Inhibition of bacterial growth of Staphylococcus aureus at 1 to 2 times MIC; assay type: functional
[2] = test system: L929; test: Cytotoxicity against mouse L929 cells assessed as effect on cell growth at 0.25 to 0.5 ug/ml incubated for 24 hrs by MTT assay; assay type: toxicity, cell-based; conditions: l929, 24 h, dose 0.25-0.5 µg/ml
[3] = test system: Escherichia coli; test: Antibacterial activity against Escherichia coli measured by Muller-Hinton broth based microdilution assay; assay type: functional
[4] = test system: Staphylococcus aureus; test: Antibacterial activity against methicillin-resistant Staphylococcus aureus N315 measured by Muller-Hinton broth based microdilution assay; assay type: functional
[5] = test system: Staphylococcus aureus; test: Induction of oxidative stress in Staphylococcus aureus assessed as increase in intracellular ROS level at 1 to 8 times MIC measured after 6 hrs by DCFH-DA staining method; assay type: functional, organism-based
[6] = test system: Staphylococcus aureus; test: Inhibition of biofilm formation in Staphylococcus aureus at 1 to 8 times MIC measured after 24 hrs by crystal violet staining method; assay type: functional, organism-based
[7] = Selectivity ratio of HC50 for hemolytic activity in human RBC to MIC for antibacterial activity against Staphylococcus aureus; assay type: toxicity; conditions: human red blood cells (erythrocytes)
[8] = Hemolytic activity in human RBC assessed as hemolytic rate at 2 to 512 ug/ml and measured after 1 hr; assay type: toxicity, cell-based, Erythrocyte; conditions: human red blood cells (erythrocytes), at 2 to 512 µg/mL, dose 2-512 µg/ml, read-out: Activity
[9] = test system: Staphylococcus aureus; test: Antibacterial activity against Staphylococcus aureus ATCC 25923 measured by Muller-Hinton broth based microdilution assay; assay type: functional
[10] = test system: Staphylococcus aureus; test: Disruption of membrane integrity in Staphylococcus aureus assessed as increase in nucleic acid leakage by measuring increase in absorbance 1 to 8 times MIC measured for 6 hrs by spectrophotometry; assay type: functional, organism-based
[11] = test system: Staphylococcus aureus; test: Antibacterial activity against Staphylococcus aureus assessed as deformed and shriveled cell structures at 1 to 2 ug/ml measured by SEM analysis; assay type: functional, organism-based; conditions: dose 1-2 µg/ml
[12] = test system: Staphylococcus aureus; test: Antibacterial activity against Staphylococcus aureus assessed as reduction in LDH activity at 1 to 8 times MIC measured after 6 hrs by microplate reader method; assay type: functional; parameters: scale not given: the % may be the effect or the level left
[13] = test system: Staphylococcus aureus; test: Antibacterial activity against Staphylococcus aureus assessed as reduction in metabolic activity at 1 to 8 times MIC measured after 6 hrs by Alamar blue assay; assay type: functional, organism-based
[14] = test system: Staphylococcus aureus; test: Induction of inner membrane permeabilization in Staphylococcus aureus by measuring increase in fluorescence intensity at 1 to 8 times MIC by calcein-AM/PI staining based fluorescence analysis; assay type: functional, organism-based
[15] = test system: Acinetobacter baumannii; test: Antibacterial activity against Acinetobacter baumannii measured by Muller-Hinton broth based microdilution assay; assay type: functional
[16] = test system: Staphylococcus aureus; test: Disruption of membrane integrity in Staphylococcus aureus assessed as increase in protein leakage by measuring increase in absorbance 1 to 8 times MIC measured for 6 hrs by Bradford assay; assay type: functional, organism-based
[17] = test system: Staphylococcus aureus; test: Bactericidal activity against Staphylococcus aureus assessed as reduction in number of colonies at 0.5 to 2 times MIC measured within 6 hrs by time-kill assay; assay type: functional, organism-based
[18] = test system: Staphylococcus aureus; test: Antibacterial activity against Staphylococcus aureus measured after 16 passages by resistance development assay; assay type: functional, organism-based
[19] = Hemolytic activity in human RBC measured after 1 hr; assay type: toxicity, cell-based, Erythrocyte; conditions: human red blood cells (erythrocytes)
[20] = test system: Staphylococcus aureus; test: Antibacterial activity against Staphylococcus aureus ATCC 29213 measured by Muller-Hinton broth based microdilution assay; assay type: functional
[21] = Toxicity in systemic sepsis mouse model infected with Staphylococcus aureus assessed as effect on spleen morphology at 2.5 to 5 mg/kg administered every 12 hrs for 3 days and measured by H and E staining-based assay; assay type: organism-based; conditions: in vivo, 72 h, dose 2.5-5 mg/kg, time 3 day
[22] = test system: Klebsiella pneumoniae; test: Antibacterial activity against Klebsiella pneumoniae measured by Muller-Hinton broth based microdilution assay; assay type: functional
[23] = test system: Staphylococcus aureus; test: Disruption of membrane integrity in Staphylococcus aureus at 8 times MIC by calcein-AM/PI staining based fluorescence analysis; assay type: functional, organism-based
[24] = test system: Escherichia coli; test: Antibacterial activity against Escherichia coli assessed as deformed and shriveled cell structures at 8 to 16 ug/ml measured by SEM analysis; assay type: functional, organism-based; conditions: dose 8-16 µg/ml
[25] = test system: Escherichia coli; test: Antibacterial activity against Escherichia coli assessed as lysed debris at 8 to 16 ug/ml measured by SEM analysis; assay type: functional, organism-based; conditions: dose 8-16 µg/ml
[26] = test system: Staphylococcus aureus; test: Antibiofilm activity in Staphylococcus aureus at 1 to 8 times MIC measured by Alamar blue assay; assay type: functional, organism-based
[27] = test system: Staphylococcus aureus; test: Antibacterial activity against Staphylococcus aureus measured by Muller-Hinton broth based microdilution assay; assay type: functional
[28] = test system: Pseudomonas aeruginosa; test: Antibacterial activity against Pseudomonas aeruginosa ATCC 27853 measured by Muller-Hinton broth based microdilution assay; assay type: functional
[29] = test system: Staphylococcus aureus; test: Induction of oxidative stress in Staphylococcus aureus assessed as decrease in GSH activity at 1 to 8 times MIC measured after 6 hrs by Ellman's assay; assay type: functional, organism-based
[30] = test system: Escherichia coli; test: Antibacterial activity against Escherichia coli ATCC 25922 measured by Muller-Hinton broth based microdilution assay; assay type: functional
[31] = Toxicity in systemic sepsis mouse model infected with Staphylococcus aureus assessed as effect on liver morphology at 2.5 to 5 mg/kg administered every 12 hrs for 3 days and measured by H and E staining-based assay; assay type: organism-based; conditions: in vivo, 72 h, dose 2.5-5 mg/kg, time 3 day
[32] = Toxicity in systemic sepsis mouse model infected with Staphylococcus aureus assessed as effect on kidney morphology at 2.5 to 5 mg/kg administered every 12 hrs for 3 days and measured by H and E staining-based assay; assay type: organism-based; conditions: in vivo, 72 h, dose 2.5-5 mg/kg, time 3 day
[33] = test system: Enterococcus faecalis; test: Antibacterial activity against Enterococcus faecalis measured by Muller-Hinton broth based microdilution assay; assay type: functional
[34] = test system: Pseudomonas aeruginosa; test: Antibacterial activity against Pseudomonas aeruginosa measured by Muller-Hinton broth based microdilution assay; assay type: functional
[35] = test system: Staphylococcus aureus; test: Antibacterial activity against Staphylococcus aureus assessed as lysed debris at 1 to 2 ug/ml measured by SEM analysis; assay type: functional, organism-based; conditions: dose 1-2 µg/ml
[36] = test system: Staphylococcus aureus; test: Induction of membrane depolarization in Staphylococcus aureus at 0.5 to 2 times MIC measured upto 1 hr by DiSC35 dye-based fluorescence assay; assay type: functional, organism-based

With `CCn1c2ccccc2c2cc(/C=N/Nc3ccc4c5c(cccc35)C(=O)N(C(CO)CO)C4=O)ccc21` the inhibition [1] was “Active”, the Activity [2] was “Non-Toxic” and the MIC [3] was 8 µg/mL (≈ 15.8 µM). For the same compound, the MIC [4] was 64 µg/mL (≈ 126 µM), the Activity [5] was “Active” and the inhibition [6] was “Active”. It also gave a selectivity ratio [7] of 2890, a hemolysis at 1 h [8] of less than 5% and an MIC [9] of 2 µg/mL (≈ 3.95 µM). For the same compound, the Activity [10] was “Active”, the Activity [11] was “Active” and the Activity [12] was 70%. For the same compound, the Activity [13] was “Active”, the Activity [14] was “Active” and the MIC [15] was 64 µg/mL (≈ 126 µM). For the same compound, the Activity [16] was “Active”, the Activity [17] was “Active” and the Activity [18] was “Active”. For the same compound, the HC50 at 1 h [19] was 722 µg/mL, the MIC [20] was 0.5 µg/mL (≈ 0.987 µM) and the Activity [21] was “Non-Toxic”. For the same compound, the MIC [22] was 8 µg/mL (≈ 15.8 µM), the Activity [23] was “Active” and the Activity [24] was “Active”. For the same compound, the Activity [25] was “Active”, the Activity [26] was “Active” and the MIC [27] was 0.25 µg/mL (≈ 0.494 µM). For the same compound, the MIC [28] was 2 µg/mL (≈ 3.95 µM), the Activity [29] was “Active” and the MIC [30] was 128 µg/mL (≈ 253 µM). For the same compound, the Activity [31] was “Non-Toxic”, the Activity [32] was “Non-Toxic” and the MIC [33] was 8 µg/mL (≈ 15.8 µM). For the same compound, the MIC [34] was 64 µg/mL (≈ 126 µM), the Activity [35] was “Active” and the Activity [36] was “Active”.
